Measurements reported in patent US6730704B2, “1-(aryloxy)propionoyl-2-arylsulfonyl hydrazines, process for preparation thereof and use thereof as hypoglycemic agents” (Council of Scientific & Industrial Research, priority 2002, dated 2004).

What was measured:
normoglycemic rats = assay: Hypoglycemic activity in normal rats; format: in vivo; settings: fasted normal Wistar rats; Glibenclamide 5 mg/kg per oral; reduction vs basal glucose, measured 1-6 hr, time of value not stated
Description: Hypoglycemic Activity in Normal Rats:
Wistar rats of either sex weighing 150-180 gms were fasted overnight and divided into control, standard and test groups each consisting of 6 rats. The standard drug, Glibenclamide, was administered in the dose of 5 mg/kg per oral to the rats. All test compounds were administered in the dose of 200 mg/kg per oral to the test groups. Both standard and test drugs were administered as 1% gum acacia suspension. Control group received vehicle only. Blood glucose levels were measured before drugs administration at 0 hr and at 1 hr, 2 hr, 4 hr and 6 hr after drugs administration. Percent reduction of blood glucose levels at different time intervals was calculated with reference to basal glucose levels. All the blood glucose estimations were done using GOD/POD method and were analyzed using Auto Blood Analyzer (Technicon RA-1000, Bayer Diagnostics, Ireland). The standard drug (Glibenclamide) has shown a percent inhibition of glucose 65.1 and all the test compounds (1 to 9 examples) have shown percent inhibition in range of 48.5 to 63.2 (FIG. 1)

[1] = test system: Streptozotocin induced diabetic rats; assay: Hypoglycemic activity in Streptozotocin induced diabetic rats; format: in vivo; settings: Streptozotocin (50 mg/kg i.v.) diabetic Wistar rats; Glibenclamide 1 mg/kg daily for 14 days; vs reading before drug administration
Description: Hypoglycemic Activity in Streptozotocin Induced Diabetic Rats:
Wistar rats of either sex weighting 150-180 gms were used in this study and were divided into control, standard and test groups each consisting of 6 rats. Basal glucose levels were taken for all rats. Diabetes was induced by administering Streptozotocin in the dose of 50 mg/kg intravenously to the rats in all the groups. After a period of 48 hrs glucose levels were again measured and rats that have shown glucose levels of 400±20 mg/dl were selected. Glibenclamide (1 mg/kg) and the test compounds (50 mg/kg) were administered as 1% gum acacia suspension daily for a period of 14 days. At the end of 14 days after the last dose, blood glucose levels were again measured and the percent reduction in blood glucose was measured for all the rats in all the groups with respect to the initial reading before drug administration.

COc1ccc(Cl)cc1C(=O)NCCc1ccc(S(=O)(=O)NC(=O)NC2CCCCC2)cc1 [Glibenclamide]
percent inhibition of glucose (normoglycemic rats): 65.1% | hypoglycemic activity expressed as percent inhibition of blood glucose levels [1]: 68.2%
